We go through 35 molecules from ChEMBL document CHEMBL3797064, “An evaluation of synthetic indole derivatives as inhibitors of monoamine oxidase” (Bioorg Med Chem Lett, 2016).

Bounds are passed on as bounds.

Assay [1] has as its target T1, Amine oxidase [flavin-containing] A (Homo sapiens, UniProt P21397).
T1 sequence (P21397 whole entry): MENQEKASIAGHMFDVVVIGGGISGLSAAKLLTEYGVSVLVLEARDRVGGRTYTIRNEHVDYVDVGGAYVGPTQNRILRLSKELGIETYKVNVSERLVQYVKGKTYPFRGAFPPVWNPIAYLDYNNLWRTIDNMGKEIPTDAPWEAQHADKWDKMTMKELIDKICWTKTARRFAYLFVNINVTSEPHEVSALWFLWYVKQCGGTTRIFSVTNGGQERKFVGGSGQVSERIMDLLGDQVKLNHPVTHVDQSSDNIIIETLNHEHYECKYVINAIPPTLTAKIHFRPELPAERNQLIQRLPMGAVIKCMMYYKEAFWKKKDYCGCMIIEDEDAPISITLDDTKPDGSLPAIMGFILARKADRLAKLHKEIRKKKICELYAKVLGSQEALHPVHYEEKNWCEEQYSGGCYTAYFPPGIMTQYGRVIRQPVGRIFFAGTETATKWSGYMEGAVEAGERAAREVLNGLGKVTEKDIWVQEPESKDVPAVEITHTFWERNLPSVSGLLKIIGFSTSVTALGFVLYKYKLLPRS
In words: Inhibition of human recombinant MAO-A using kynuramine as substrate incubated for 20 mins by fluorescence spectrophotometric analysis.

The target of assay [2] is T2, Amine oxidase [flavin-containing] B (Homo sapiens, UniProt P27338).
T2 sequence (P27338 whole entry): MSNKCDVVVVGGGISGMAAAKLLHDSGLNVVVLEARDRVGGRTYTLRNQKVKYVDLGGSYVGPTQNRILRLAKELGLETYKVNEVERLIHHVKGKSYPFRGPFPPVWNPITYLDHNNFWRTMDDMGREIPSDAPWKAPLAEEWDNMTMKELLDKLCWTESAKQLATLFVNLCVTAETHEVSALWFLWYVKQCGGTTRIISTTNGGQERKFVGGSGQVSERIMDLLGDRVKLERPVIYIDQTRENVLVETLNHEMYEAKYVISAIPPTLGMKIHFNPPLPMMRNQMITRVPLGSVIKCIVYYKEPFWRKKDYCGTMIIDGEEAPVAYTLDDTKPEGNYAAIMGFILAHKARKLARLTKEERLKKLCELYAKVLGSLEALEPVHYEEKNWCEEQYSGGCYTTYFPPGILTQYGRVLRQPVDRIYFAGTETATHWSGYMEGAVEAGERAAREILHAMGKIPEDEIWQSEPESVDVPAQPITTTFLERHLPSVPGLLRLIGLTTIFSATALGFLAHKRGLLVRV
In words: Inhibition of human recombinant MAO-B using kynuramine as substrate incubated for 20 mins by fluorescence spectrophotometric analysis.

The species entered for assay [3] is Homo sapiens. In words: Selectivity index, ratio of IC50 for human recombinant MAO-B to IC50 for human recombinant MAO-A.

For the molecule `Cc1ccc(-c2cc3cc(C#N)c(C#N)cc3n2O)cc1`, the concentration for half-maximal inhibition (IC50) in assay [1] was 1.14 µM; in assay [2], 0.821 µM. Further, the Ratio IC50 in assay [3] is 0.72.

Turning to `O=C1NC(=O)c2cc3c(cc21)cc(-c1cccs1)n3O`, the IC50 was 6.35 µM in assay [1] and over 100 µM in assay [2]. Besides, in assay [3], the Ratio IC50 was over 16.

Take `O=C(O)c1cc2cc(-c3ccccc3)n(O)c2cc1C(=O)O`: the IC50 in assay [1] was 23.3 µM; in assay [2] it was 56.2 µM. In addition, the Ratio IC50 in assay [3] turned out to be 2.4.

`Cc1ccc(C(=O)Cc2cc(C(=O)O)c(C(=O)O)cc2[N+](=O)[O-])cc1`: the IC50 in assay [1] and in assay [2] was over 100 µM in each case.

Consider `O=C1NC(=O)c2cc3c(cc21)cc(-c1ccccc1)n3O`, for which the IC50 in assay [1] was over 100 µM; in assay [2] it was 83.1 µM. For the same molecule, the Ratio IC50 in assay [3] is under 0.83.

Regarding `O=C(Cc1cc(C(=O)O)c(C(=O)O)cc1[N+](=O)[O-])c1ccccc1`, the IC50 in assay [1] and in assay [2] was over 100 µM in each case.

For `O=C(Cc1cc(C(=O)O)c(C(=O)O)cc1[N+](=O)[O-])c1cccs1`, the IC50 in assay [1] and in assay [2] was over 100 µM in each case.

`COc1ccc(-c2cc3cc(C#N)c(C#N)cc3n2O)cc1`: the results for the half-inhibitory concentration (IC50) in assay [1] and in assay [2] were 1.84 µM and 1.79 µM, respectively. In addition, in assay [3], the Ratio IC50 was found to be 0.97.

With `COc1ccc(C(=O)Cc2cc(C(=O)O)c(C(=O)O)cc2[N+](=O)[O-])cc1`, the concentration for half-maximal inhibition (IC50) in assay [1] and in assay [2] was over 100 µM throughout.

Turning to `Cc1ccc(C(=O)Cc2cc3c(cc2[N+](=O)[O-])C(=O)NC3=O)cc1`, the IC50 in assay [1] was found to be 2.11 µM; in assay [2] it was 0.923 µM. In assay [3], the Ratio IC50 came out at 0.44.

Consider `COn1c(-c2ccc(C)cc2)c(CO)c2cc(C#N)c(C#N)cc21`, for which the IC50 in assay [1] was 5.12 µM; in assay [2], over 100 µM. In assay [3], the Ratio IC50 was over 20.

As to `Cc1ccc(-c2cc3cc(C(=O)O)c(C(=O)O)cc3n2O)cc1`, the IC50 in assay [1] and in assay [2] was over 100 µM throughout.

`COc1ccc(-c2c(C=O)c3cc(C#N)c(C#N)cc3n2OC)cc1`: the IC50 is 0.147 µM in assay [1] and over 100 µM in assay [2]. Further, the Ratio IC50 in assay [3] is over 680.

Take `N#Cc1cc2cc(-c3cccs3)n(O)c2cc1C#N`: the IC50 in assay [1] was 11.1 µM; in assay [2], over 100 µM. The Ratio IC50 in assay [3] is over 9.

Take `COC(=O)c1cc2cc(-c3ccc(OC)cc3)n(OC)c2cc1C(=O)OC`: the results for the IC50 in assay [1] and in assay [2] were 19 µM and over 100 µM, respectively. Further, the Ratio IC50 in assay [3] is over 5.3.

Consider `COn1c(-c2cccs2)cc2cc3c(cc21)C(=O)NC3=O`, for which the IC50 in assay [1] came to 6.7 µM; in assay [2] it was 3.75 µM. In addition, the Ratio IC50 in assay [3] turned out to be 0.56.

Turning to `COn1c(-c2ccccc2)c(Br)c2cc(C#N)c(C#N)cc21`, the IC50 in assay [1] and in assay [2] was over 100 µM each time.

Turning to `O=C(O)c1cc2cc(-c3cccs3)n(O)c2cc1C(=O)O`, the IC50 in assay [1] and in assay [2] was over 100 µM each time.

Consider `COn1c(-c2ccc(C)cc2)c(C=O)c2cc(C#N)c(C#N)cc21`, for which the IC50 in assay [1] was 0.405 µM; in assay [2], 74.8 µM. In addition, the Ratio IC50 in assay [3] was 185.

In the case of `COc1ccc(C(=O)Cc2cc3c(cc2[N+](=O)[O-])C(=O)N(Cc2ccccc2)C3=O)cc1`, the IC50 was 5.51 µM in assay [1] and over 100 µM in assay [2]. The Ratio IC50 in assay [3] is over 18.

With `COc1ccc(C(=O)Cc2cc3c(cc2[N+](=O)[O-])C(=O)NC3=O)cc1`, the half-maximal inhibitory concentration (IC50) in assay [1] worked out at 0.661 µM; in assay [2] it was 1.21 µM. Besides, the Ratio IC50 in assay [3] was determined as 1.8.

As for `COn1c(-c2ccc(C)cc2)cc2cc3c(cc21)C(=O)NC3=O`, the IC50 in assay [1] came to 1.75 µM; in assay [2], 0.581 µM. Moreover, the Ratio IC50 in assay [3] was found to be 0.33.

For the molecule `COc1ccc(-c2cc3cc(C(=O)O)c(C(=O)O)cc3n2O)cc1`, the half-maximal inhibitory concentration (IC50) in assay [1] and in assay [2] was over 100 µM in each case.

On to `Cc1ccc(-c2cc3cc4c(cc3n2O)C(=O)NC4=O)cc1`, for which the IC50 was 1.16 µM in assay [1] and 8.09 µM in assay [2]. The Ratio IC50 in assay [3] was determined as 7.

Take `O=C(Cc1cc2c(cc1[N+](=O)[O-])C(=O)NC2=O)c1ccccc1`: the IC50 in assay [1] amounted to 5.38 µM; in assay [2] it was 6.79 µM. The Ratio IC50 in assay [3] stood at 1.3.

In the case of `COn1c(-c2ccccc2)cc2cc3c(cc21)C(=O)N(C)C3=O`, the values for the IC50 in assay [1] and in assay [2] were 1.24 µM and over 100 µM, respectively. For the same molecule, the Ratio IC50 in assay [3] is over 81.

Consider `COc1ccc(-c2c(CO)c3cc(C#N)c(C#N)cc3n2OC)cc1`, for which the half-inhibitory concentration (IC50) in assay [1] was 1.13 µM; in assay [2], over 100 µM. In assay [3], the Ratio IC50 was over 88.

Consider `N#Cc1cc2cc(-c3ccccc3)n(O)c2cc1C#N`, for which the IC50 in assay [1] was determined as 6.92 µM; in assay [2], 10.3 µM. Also, in assay [3], the Ratio IC50 turned out to be 1.5.

In the case of `O=C1NC(=O)c2cc3c(Cl)c(-c4ccccc4)[nH]c3cc21`, the IC50 in assay [1] is 0.25 µM; in assay [2], over 100 µM. In assay [3], the Ratio IC50 is over 400.

Consider `O=C(Cc1cc2c(cc1[N+](=O)[O-])C(=O)NC2=O)c1cccs1`, for which the IC50 in assay [1] was 6.12 µM; in assay [2], over 100 µM. The Ratio IC50 in assay [3] is over 16.

Regarding `COn1c(-c2ccccc2)c(CO)c2cc(C#N)c(C#N)cc21`, the results for the IC50 in assay [1] and in assay [2] were 4.99 µM and over 100 µM, respectively. In addition, the Ratio IC50 in assay [3] was over 20.

For `COn1c(-c2ccccc2)c(C=O)c2cc(C#N)c(C#N)cc21`, the half-maximal inhibitory concentration (IC50) is 0.522 µM in assay [1] and over 100 µM in assay [2]. Moreover, the Ratio IC50 in assay [3] was over 192.

As to `O=C(Cc1cc2c(cc1[N+](=O)[O-])C(=O)N(Cc1ccccc1)C2=O)c1cccs1`, the IC50 in assay [1] and in assay [2] was over 100 µM each time.

Consider `CC(=O)On1c(-c2cccs2)cc2cc(C#N)c(C#N)cc21`, for which the half-inhibitory concentration (IC50) in assay [1] is 2.08 µM; in assay [2] it was 1.94 µM. In addition, the Ratio IC50 in assay [3] stood at 0.93.

With `COn1c(-c2ccc(C)cc2)c(Br)c2cc(C#N)c(C#N)cc21`, the half-maximal inhibitory concentration (IC50) in assay [1] was over 100 µM; in assay [2] it was 7.46 µM. Besides, the Ratio IC50 in assay [3] was under 0.075.
